Assay results published in ChEMBL document CHEMBL1140916, “Structure-activity relationship of new anti-hepatitis C virus agents: heterobicycle-coumarin conjugates” (J Med Chem, 2009).

Key:
[1] = Cytotoxicity against HCV infected human Huh5-2 cells assessed as microscopically detectable alteration in cell morphology after 3 days; type: cell-based, Huh-5-2; conditions: HCV infected Huh5-2 cells
[2] = Selectivity index, ratio of CC50 for human Huh 5-2 cells to EC50 for HCV
Hepatitis C virus = experiment: Antiviral activity against HCV infected in human Huh5-2 cells assessed as reduction of virus-induced cytopathogenicity after 4 days; type: functional, organism-based, Hepacivirus hominis; conditions: Huh-5-2, 96 h

| Structure (SMILES) | EC50 (Hepatitis C virus) | CC50 at 72 h [1] | Ratio CC50/EC50 [2] |
| --- | --- | --- | --- |
| O=c1oc2ccccc2cc1CSc1nc2cncnc2[nH]1 | 2 µM | 109 µM | 54 |
| O=c1oc2ccc(Br)cc2cc1CSc1nc2cccnc2[nH]1 | 6.8 µM | 128 µM | 19 |
| Cc1ccc2[nH]c(SCc3ccncc3)nc2c1 | 199 µM | 199 µM | 1 |
| CC(=O)OC[C@H]1O[C@@H](n2c(=S)[nH]c3ccccc32)[C@H](OC(C)=O)[C@@H](OC(C)=O)[C@@H]1OC(C)=O | 104 µM | 104 µM | 1 |
| O=c1oc2ccccc2cc1CSc1nc2cccnc2[nH]1 | 59 µM | 95 µM | 1.6 |
| Fc1ccc2[nH]c(SCc3ccccc3)nc2c1 | 197 µM | 197 µM | 1 |
| Clc1cc2nc(SCc3ccncc3)[nH]c2cc1Cl | 100 µM | 107 µM | 1.1 |
| COc1cccc2cc(CSc3nc4ccccc4[nH]3)c(=O)oc12 | 10 µM | 27 µM | 2.8 |
| COc1cccc2cc(CSc3nc4ccccc4s3)c(=O)oc12 | 29 µM | 40 µM | 1.4 |
| O=c1oc2ccccc2cc1CSc1nc2cc(Cl)c(Cl)cc2[nH]1 | 15 µM | 74 µM | 4.9 |
| COc1cccc2cc(CSc3nc4ccccc4o3)c(=O)oc12 | 19 µM | 18 µM | 0.96 |

More lines, in order of falling EC50 (Hepatitis C virus), values ahead:

| EC50 (Hepatitis C virus) | Structure (SMILES) | CC50 at 72 h [1] | Ratio CC50/EC50 [2] |
| --- | --- | --- | --- |
| 184 µM | Fc1ccc2[nH]c(SCc3ccncc3)nc2c1 | 196 µM | 1.1 |
| 80 µM | O=c1oc2ccccc2cc1CSc1nc2ccccc2s1 | 153 µM | 1.9 |
| 76 µM | c1ccc2cc(CSc3nc4ccccc4[nH]3)ccc2c1 | 56 µM | 0.73 |
| 63 µM | CC(=O)OC[C@H]1O[C@@H](n2c(SCc3ccc([N+](=O)[O-])cc3)nc3ccccc32)[C@H](OC(C)=O)[C@@H](OC(C)=O)[C@@H]1OC(C)=O | 83 µM | 1.3 |
| 27 µM | O=c1oc2ccccc2cc1CSc1nc2ccccc2[nH]1 | 90 µM | 3.4 |
| 20 µM | COc1cccc2cc(CSc3nc4cncnc4[nH]3)c(=O)oc12 | 94 µM | 4.8 |
| 12 µM | COc1cccc2cc(CSc3nc4ccccc4n3[C@H]3C[C@@H](OC(C)=O)[C@H](OC(C)=O)[C@@H](COC(C)=O)O3)c(=O)oc12 | 26 µM | 2.2 |
| 12 µM | O=c1oc2ccc(Br)cc2cc1CSc1nc2ccccc2o1 | 131 µM | 11 |
| 12 µM | O=c1oc2ccccc2cc1CSc1nc2ccccc2o1 | 45 µM | 3.9 |
| 11 µM | COc1cccc2cc(CSc3nc4cccnc4[nH]3)c(=O)oc12 | 30 µM | 2.8 |
| 4.1 µM | CC(=O)OC[C@H]1O[C@@H](n2c(SCc3cc4cc(Br)ccc4oc3=O)nc3ccccc32)C[C@@H](OC(C)=O)[C@@H]1OC(C)=O | 16 µM | 4 |
| 1.8 µM | CC(=O)OC[C@H]1O[C@@H](n2c(SCc3cc4cc(Br)ccc4oc3=O)nc3cc(Cl)c(Cl)cc32)C[C@@H](OC(C)=O)[C@@H]1OC(C)=O | 11 µM | 6.4 |
